Key:
Type in all cases: cell-based, human
M1619 melanoma cells = test: MTT proliferation assay, M1619 melanoma; conditions: CuSO4 supplementation of medium without disulfiram
Experimental: Human malignant cell lines were obtained from American Type Tissue Culture Collection (Rockville, Md.). Melanoma cells lines CRL 1585 and 1619 were cultured in RPMI 1640 (GIBCO-BRL, Life Technologies, Grand Island, N.Y.) with 10% FBS and passed with nonenzymatic Cell Dissociation Solution® (Sigma). The prostate adenocarcinoma cell line CRL 1435 (PC-3) was also cultured in RPMI 1640 with 10% FBS but passed with 0.05% trypsin and 0.53 mM EDTA. The squamous lung carcinoma NCI-H520 and the adenosquamous lung carcinoma NCI-H596 cell lines were grown in RPMI 1640 supplemented with 10% FBS, 10 mM HEPES and 1.0 mM sodium pyruvate and passed with trypsin/EDTA. The small cell lung carcinoma NCI-H82 was cultured as a suspension in RPMI 1640 with 10% FBS. All of the above were grown in a 37° C. humidified environment containing 5% CO2/air. The breast carcinoma cell line MDA-MB-453 was grown in a 37° C. humidified environment with free gas exchange with atmospheric air using Leibovitz's L-15 medium with 2 mM L-glutamine and 10% FBS and was passed with trypsin/EDTA.
The effect of disulfiram (0.15 to 5.0 μM), diethyldithiocarbamate (DDC, 1.0 μM) or PDTC (0.625 to 5.0 μM) on proliferation of malignant cell lines was studied in cultures stimulated with 10% FBS. Cell numbers were quantitated 24-72 hours later. In some experiments disulfiram or PDTC were added immediately after cells were plated. In other experiments, cells were plated and allowed to grow for 24-72 hours before fresh media with disulfiram or PDTC was added, and cell numbers were assayed 24-72 hours later.
Finally, a number of dithiocarbamate effects on cells have been attributed to increasing the intracellular levels of copper ions. To further probe the role of copper in mediating cytotoxicity from disulfiram, cells were cultured with or without addition of the impermeate Cu^2+ chelator bathocuprioinedisulfonic acid (BCPS, 100 μM) added to medium to sequester Cu^2+ in the extracellular compartment. Cells were also treated 12 hours with various concentration of disulfiram (0.625 to 5.0 μM) and intracellular copper levels were measured as outlined below.
Proliferation of cultured cells was quantitated using a previously reported calorimetric method based upon metabolic reduction of the soluble yellow tetrazolium dye 3-[4,5-dimethylthiazol]-2yl-2,5-diphenyl tetrazolium bromide (MTT) to its insoluble purple formazan by the action of mitochondrial succinyl dehydrogenase (See, e.g., S. J. Hirst, et al., “Quantifying proliferation of cultured human and rabbit airway smooth muscle in response to serum and platelet derived growth factor,” Am. J. Respir. Cell Mol. Biol. 7:574-581 (1992); R. Dashtaki, et al. R., supra; S. S. Brar, et al., “Requirement for reactive oxygen species in serum-induced and platelet-derived growth factor-induced growth of airway smooth muscle,” J. Biol. Chem. 274:20017-20026 (1999)). This assay empirically distinguishes between dead and living cells. For proliferation studies, cells were seeded into 24-well uncoated plastic plates (Costar) at 50,000 cells per well and cultured with respective media and mitogens.

cyclin A = test: Immunoblot for cyclin A in M1619 cells; conditions: CuSO4 1.6 μM alone; 24 hours
Experimental: Cells were lysed and proteins were isolated and quantitated by immunoassay as previously detailed using 2 μg/ml of primary rabbit polyclonal antibodies against human bcl-2, p53, p21^WAF1/CiP1, cyclin A and cyclin B1, and peroxidase-labeled donkey polyclonal anti-rabbit IgG. Cells were placed on ice, washed twice with cold DPBS, scraped into 0.5 ml boiling buffer (10% [vol/vol] glycerol and 2% [wt/vol] sodium dodecyl sulfate [SDS] in 83 mM Tris, pH 6.8) and sheared by four passages through a pipette. Aliquots were removed for protein determination, using the BCA protein assay (Pierce). After 10% β-mercaptoethanol and 0.05% bromophenol blue were added, lysates were boiled for 5 min and stored at -80° C. until immunoblotting was performed. Proteins in defrosted samples were separated by SDS-polyacrylamide gel electrophoresis on 12% polyacrylamide gels (15 μg protein/lane) and electrotransferred to 0.45 μm Hybond ECL nitrocellulose membranes (Amersham Life Sciences) using the wet transblot method in transfer buffer (0.025 M Tris, 0.192 M glycine, 2.6 mM SDS, and 20%[vol/vol] methanol; pH 8.8) at 100 volts for 1 hour. Blots were blocked overnight at 4° C. with blocking buffer (PBS with 0.1% Tween 20) containing 5% fat-free milk powder (Carnation, Glendale, Calif.). After rinsing 5 times for 5 minutes each in PBS containing 0.1% Tween 20, blots were incubated for 1 hour at room temperature with 2.0 μg/ml of primary antibody. After rinsing again as above, blots were incubated for 1 hr at room temperature with horseradish peroxidase (HRP)-conjugated secondary antibody diluted 1:5,000 in blocking buffer. Immunoblots were rinsed again as above and detected via an enhanced chemiluminescence method (ECL Western blotting detection system, Amersham Life Science, Buckinghamshire, England). Autoradiographic film (X-OMAT AR, Eastman Kodak, Rochester, N.Y.) was exposed to immunoblots for 10, 30, or 60 seconds to obtain satisfactory images. Since disulfiram and copper disrupt transcription factor DNA binding to CRE, their effect on expression of cyclin A was studied. […]

M1619 cells = test: Intracellular reactive oxygen species, dichlorofluorescin probe; conditions: CuSO4 0.2-1.6 μM
Experimental: Potential redox effects of disulfiram were studied in three sets of experiments. The importance of cellular glutathione (GSH) in mediating or modulating thiocarbamate toxicity was studied by measuring levels of intracellular GSH after treatment with disulfiram. […] Also, to assess whether a nonspecific antioxidant effect of disulfiram or PDTC might account for cellular growth inhibition, we studied the effect of the potent lipophilic antioxidant probucol (1.0 to 1,000 μM) on proliferation of malignant cell lines. […] A. Royall, et al., “Evaluation of 2′,7′-dichlorofluorescin and dihydrorhodamine 123 as fluorescent probes for intracellular H2O2 in cultured endothelial cells,” Archiv. Biochem. Biophys. 302:348-355 (1993)). […] Cells were plated in 24 well plastic plates at 50,000 cells per well and grown to confluence. Media was aspirated from wells and replaced with 100 μl medium containing 10 μM DCF-DA, and plates were incubated at 37° C. for 30 minutes. The DCF-DA containing media was aspirated, cells were washed twice with media alone and 100 μl fresh media was added to wells. […] The relative concentration of dichlorofluroescein was measured immediately by monitoring fluorescence at 37° C. using an excitation wavelength of 485 nm and emission wavelength of 535 nm.

Structure (SMILES): O=S(=O)([O-])[O-].[Cu+2] [CuSO4, cupric sulfate]
- cell growth, copper alone (M1619 melanoma cells): do not by themselves affect cell growth
- cyclin A expression (cyclin A): little effect
- generation of reactive oxygen species (dichlorofluorescein fluorescence vs baseline) (M1619 cells): not increased
